According to PubChem BioAssay AID1259407 (Chemical Carcinogenesis Research Information System (CCRIS), 2018):
Activity calls are given as the source filed them. No rule for the calls is given here.

Tested on: CCRIS mutagenicity, Ames/micronucleus/aberration tests
Assay: CCRIS mutagenicity studies

CN(C)N=O
mutagenic call (End Point: IN VITRO CHROMOSOMAL ABERRATIONS, Test System: CHL/IU CELLS, Metabolic Activation: RAT, LIVER, S-9, PHENOBARBITAL AND 5,6-BENZOFLAVONE): active; positive (structural changes)
mutagenic call (End Point: IN VITRO CHROMOSOMAL ABERRATIONS, Test System: CHO CELLS, Metabolic Activation: NONE): inactive; negative
mutagenic call (End Point: IN VITRO MICRONUCLEUS, Test System: CHL/IU CELLS, Metabolic Activation: RAT, LIVER, S-9, PHENOBARBITAL AND 5,6-BENZOFLAVONE): active; positive
mutagenic call (End Point: IN VIVO MICRONUCLEUS, Test System: HEPATOCYTES, Species: RAT, Strain/Sex: FISHER 344 OR SD/MALE, Route: ORAL OR IP): active; positive
mutagenic call (End Point: IN VIVO MICRONUCLEUS, Test System: PERIPHERAL BLOOD RETICULOCYTES, Species: RAT, Strain/Sex: FISHER 344 OR SD/MALE, Route: ORAL OR IP): inactive; negative
mutagenic call (End Point: In vivo micronucleus, Test System: Liver, Species: Mouse, Strain/Sex: Big Blue/Male, Route: Oral): active; positive for laci mutation frequency in liver; high percentage of g:c to t:a t
mutagenic call (End Point: In vivo micronucleus, Test System: Micronucleated hepatocytes, Species: Rat, Strain/Sex: F344/Male, Route: Oral): active; positive (p<0.01)
mutagenic call (Test System: AMES SALMONELLA TYPHIMURIUM, Strain/Indicator: NM2000, Metabolic Activation: RAT, LIVER, S-9, ISONIAZID, Method: PREINCUBATION): active; positive
mutagenic call (Test System: AMES SALMONELLA TYPHIMURIUM, Strain/Indicator: NM2009, Metabolic Activation: RAT, LIVER, S-9, ISONIAZID, Method: PREINCUBATION): active; positive
mutagenic call (Test System: AMES SALMONELLA TYPHIMURIUM, Strain/Indicator: TA92, Metabolic Activation: MOUSE, LIVER, S-10, Method: PREINCUBATION): active; positive
mutagenic call (Test System: AMES SALMONELLA TYPHIMURIUM, Strain/Indicator: TA97, Metabolic Activation: NONE, Method: STANDARD PLATE): inactive; negative
mutagenic call (Test System: AMES SALMONELLA TYPHIMURIUM, Strain/Indicator: TA97, Metabolic Activation: RAT, LIVER, S-9, AROCLOR 1254, Method: STANDARD PLATE): inactive; negative
mutagenic call (Test System: AMES SALMONELLA TYPHIMURIUM, Strain/Indicator: TA98, Metabolic Activation: NONE, Method: STANDARD PLATE): inactive; negative
mutagenic call (Test System: AMES SALMONELLA TYPHIMURIUM, Strain/Indicator: TA98, Metabolic Activation: RAT, LIVER, S-9, AROCLOR 1254, Method: STANDARD PLATE): inactive; negative
mutagenic call (Test System: AMES SALMONELLA TYPHIMURIUM, Strain/Indicator: TA100, Metabolic Activation: HAMSTER, LIVER, S-9, AROCLOR 1254, NADPH GENERATING SYSTEM, CYTOSOL, Method: PREINCUBATION): active; positive
mutagenic call (Test System: AMES SALMONELLA TYPHIMURIUM, Strain/Indicator: TA100, Metabolic Activation: HAMSTER, LIVER, S-9, Method: PREINCUBATION): active; positive
mutagenic call (Test System: AMES SALMONELLA TYPHIMURIUM, Strain/Indicator: TA100, Metabolic Activation: HUMAN, LIVER, S-9, Method: PREINCUBATION): inactive; negative
mutagenic call (Test System: AMES SALMONELLA TYPHIMURIUM, Strain/Indicator: TA100, Metabolic Activation: MICROSOMES, CYTOSOL, Method: PREINCUBATION): active; positive
mutagenic call (Test System: AMES SALMONELLA TYPHIMURIUM, Strain/Indicator: TA100, Metabolic Activation: MOUSE, INTACT UROTHELIAL CELLS, Method: FLUCTUATION TEST): active; positive
mutagenic call (Test System: AMES SALMONELLA TYPHIMURIUM, Strain/Indicator: TA100, Metabolic Activation: MOUSE, LIVER, S-9, PHENOBARBITAL AND BETA-NAPHTHOFLAVONE, Method: PREINCUBATION): active; positive
mutagenic call (Test System: AMES SALMONELLA TYPHIMURIUM, Strain/Indicator: TA100, Metabolic Activation: MOUSE, LIVER, S-9, PHENOBARBITAL, BETA-NAPHTHOFLAVONE, ISOSAFROLE, ETHANOL, PREGNENOLONE AND 16ALPHA-CARBONITRILE, Method: PREINCUBATION): active; positive
mutagenic call (Test System: AMES SALMONELLA TYPHIMURIUM, Strain/Indicator: TA100, Metabolic Activation: NONE, Method: PREINCUBATION): inactive; negative
mutagenic call (Test System: AMES SALMONELLA TYPHIMURIUM, Strain/Indicator: TA100, Metabolic Activation: NONE, Method: STANDARD PLATE): inactive; negative
mutagenic call (Test System: AMES SALMONELLA TYPHIMURIUM, Strain/Indicator: TA100, Metabolic Activation: PIG, LIVER, S-9, Method: PREINCUBATION): inactive; negative
mutagenic call (Test System: AMES SALMONELLA TYPHIMURIUM, Strain/Indicator: TA100, Metabolic Activation: RABBIT, LIVER, S-9, Method: STANDARD PLATE): inactive; negative
mutagenic call (Test System: AMES SALMONELLA TYPHIMURIUM, Strain/Indicator: TA100, Metabolic Activation: RABBIT, LUNG, S-9, Method: STANDARD PLATE): inactive; negative
mutagenic call (Test System: AMES SALMONELLA TYPHIMURIUM, Strain/Indicator: TA100, Metabolic Activation: RABBIT, NASAL, S-9, Method: STANDARD PLATE): inactive; negative
mutagenic call (Test System: AMES SALMONELLA TYPHIMURIUM, Strain/Indicator: TA100, Metabolic Activation: RAT, INTACT UROTHELIAL CELLS, Method: FLUCTUATION TEST): active; positive
mutagenic call (Test System: AMES SALMONELLA TYPHIMURIUM, Strain/Indicator: TA100, Metabolic Activation: RAT, LIVER, S-9, AROCLOR 1254, (PREGNANT MARE SERUM), Method: PREINCUBATION): active; positive
mutagenic call (Test System: AMES SALMONELLA TYPHIMURIUM, Strain/Indicator: TA100, Metabolic Activation: RAT, LIVER, S-9, AROCLOR 1254, Method: PREINCUBATION): active; positive
mutagenic call (Test System: AMES SALMONELLA TYPHIMURIUM, Strain/Indicator: TA100, Metabolic Activation: RAT, LIVER, S-9, AROCLOR 1254, Method: STANDARD PLATE): inactive; negative
mutagenic call (Test System: AMES SALMONELLA TYPHIMURIUM, Strain/Indicator: TA100, Metabolic Activation: RAT, LIVER, S-9, CYCLOHEXANOL, Method: PREINCUBATION): active; positive
mutagenic call (Test System: AMES SALMONELLA TYPHIMURIUM, Strain/Indicator: TA100, Metabolic Activation: RAT, LIVER, S-9, ETHANOL, Method: PREINCUBATION): active; positive
mutagenic call (Test System: AMES SALMONELLA TYPHIMURIUM, Strain/Indicator: TA100, Metabolic Activation: RAT, LIVER, S-9, KC500 OR PHENOBARBITAL, Method: LIQUID SUSPENSION): active; positive
mutagenic call (Test System: AMES SALMONELLA TYPHIMURIUM, Strain/Indicator: TA100, Metabolic Activation: RAT, LIVER, S-9, N-BENZYLIMIDAZOLE, Method: PREINCUBATION): active; positive
mutagenic call (Test System: AMES SALMONELLA TYPHIMURIUM, Strain/Indicator: TA100, Metabolic Activation: RAT, LIVER, S-9, PHENOBARBITAL, Method: PREINCUBATION): active; positive
mutagenic call (Test System: AMES SALMONELLA TYPHIMURIUM, Strain/Indicator: TA100, Metabolic Activation: RAT, LUNG, S-9, Method: STANDARD PLATE): inactive; negative
mutagenic call (Test System: AMES SALMONELLA TYPHIMURIUM, Strain/Indicator: TA100, Metabolic Activation: RAT, NASAL, S-9, Method: STANDARD PLATE): inactive; negative
mutagenic call (Test System: AMES SALMONELLA TYPHIMURIUM, Strain/Indicator: TA100, Metabolic Activation: S-9, Method: PREINCUBATION): inactive; negative
mutagenic call (Test System: AMES SALMONELLA TYPHIMURIUM, Strain/Indicator: TA100, Metabolic Activation: TOBACCO CELLS, Method: PREINCUBATION): inactive; negative
mutagenic call (Test System: AMES SALMONELLA TYPHIMURIUM, Strain/Indicator: TA104, Metabolic Activation: HAMSTER, LIVER, S-9, AROCLOR 1254, NADPH GENERATING SYSTEM, CYTOSOL, Method: PREINCUBATION): active; positive
mutagenic call (Test System: AMES SALMONELLA TYPHIMURIUM, Strain/Indicator: TA104, Metabolic Activation: HAMSTER, LIVER, S-9, AROCLOR 1254, Method: PREINCUBATION): active; positive
mutagenic call (Test System: AMES SALMONELLA TYPHIMURIUM, Strain/Indicator: TA104, Metabolic Activation: HAMSTER, LIVER, S-9, Method: PREINCUBATION): active; positive
mutagenic call (Test System: AMES SALMONELLA TYPHIMURIUM, Strain/Indicator: TA104, Metabolic Activation: MICROSOMES, CYTOSOL, Method: PREINCUBATION): active; positive
mutagenic call (Test System: AMES SALMONELLA TYPHIMURIUM, Strain/Indicator: TA104, Metabolic Activation: RAT, LIVER, S-9, AROCLOR 1254, Method: PREINCUBATION): active; positive
mutagenic call (Test System: AMES SALMONELLA TYPHIMURIUM, Strain/Indicator: TA104, Metabolic Activation: RAT, LIVER, S-9, Method: PREINCUBATION): active; positive
mutagenic call (Test System: AMES SALMONELLA TYPHIMURIUM, Strain/Indicator: TA1530, Metabolic Activation: RAT, LIVER, S-9, AROCLOR 1254, Method: PREINCUBATION): active; positive
mutagenic call (Test System: AMES SALMONELLA TYPHIMURIUM, Strain/Indicator: TA1530, Metabolic Activation: RAT, LIVER, S-9, Method: STANDARD PLATE): active; positive
mutagenic call (Test System: AMES SALMONELLA TYPHIMURIUM, Strain/Indicator: TA1535 (PSK1002), Metabolic Activation: RAT, LIVER, S-9, ISONIAZID, Method: PREINCUBATION): active; positive
mutagenic call (Test System: AMES SALMONELLA TYPHIMURIUM, Strain/Indicator: TA1535, Metabolic Activation: NONE, Method: PREINCUBATION): inactive; negative
mutagenic call (Test System: AMES SALMONELLA TYPHIMURIUM, Strain/Indicator: TA1535, Metabolic Activation: RAT LIVER S-9, ETHANOL (4%), Method: PREINCUBATION): inactive; negative
mutagenic call (Test System: AMES SALMONELLA TYPHIMURIUM, Strain/Indicator: TA1535, Metabolic Activation: RAT, LIVER, HEPATOCYTES, Method: PREINCUBATION): active; positive
mutagenic call (Test System: AMES SALMONELLA TYPHIMURIUM, Strain/Indicator: TA1535, Metabolic Activation: RAT, LIVER, MICROSOMES, KANECHLOR 500, Method: PREINCUBATION): active; positive
mutagenic call (Test System: AMES SALMONELLA TYPHIMURIUM, Strain/Indicator: TA1535, Metabolic Activation: RAT, LIVER, S-9, AROCLOR 1254, (PREGNANT MARE SERUM), Method: PREINCUBATION): active; positive
mutagenic call (Test System: AMES SALMONELLA TYPHIMURIUM, Strain/Indicator: TA1535, Metabolic Activation: RAT, LIVER, S-9, AROCLOR 1254, Method: PREINCUBATION): active; positive
mutagenic call (Test System: AMES SALMONELLA TYPHIMURIUM, Strain/Indicator: TA1535, Metabolic Activation: RAT, LIVER, S-9, AROCLOR, Method: PREINCUBATION): active; positive
mutagenic call (Test System: AMES SALMONELLA TYPHIMURIUM, Strain/Indicator: TA1535, Metabolic Activation: RAT, LIVER, S-9, KC500 OR PHENOBARBITAL, Method: LIQUID SUSPENSION): active; positive
mutagenic call (Test System: AMES SALMONELLA TYPHIMURIUM, Strain/Indicator: TA1535, Metabolic Activation: RAT, LIVER, S-9, SODIUM PHENOBARBITONE, Method: PREINCUBATION): active; positive
mutagenic call (Test System: AMES SALMONELLA TYPHIMURIUM, Strain/Indicator: TA1535, Metabolic Activation: RAT, LIVER, S-9, Method: PREINCUBATION): inactive; negative
mutagenic call (Test System: AMES SALMONELLA TYPHIMURIUM, Strain/Indicator: TA1535, Metabolic Activation: S-9, Method: PREINCUBATION): active; positive
